pIC50: −log10 of the molar value. Where two headings read alike, the source gives them in different places.
How the values were obtained:
[1] = tested on: PSMB9-FLAG (immunoproteasome); experiment: Immunoproteasome activity assay on immunoprecipitated PSMB9-FLAG (Ac-PAL-AMC); assay type: biochemical, human; settings: n=3; for PSMB9 activity at single concentration: 100 nM for 30 min, Ac-PAL-AMC
Excerpt: Also refer to Supplementary Figure S2.

[2] = target: T1, PSMB5-FLAG (chymotryptic-like activity, constitutive 26S proteasome) (Homo sapiens, UniProt P20618+P28074); experiment: Proteasome activity assay on immunoprecipitated WT PSMB5-FLAG (Suc-LLVY-AMC); assay type: biochemical; settings: for proteasomal activity of WT PSMB5: Suc-LLVY-AMC, relative to DMSO, n=3
T1 construct: made in house; host or cells: HEK293 cells stably expressing PSMB5-FLAG; FLAG immunoprecipitate
Description: (B) Wildtype (WT) PSMB5-FLAG was immunoprecipitated from HEK293 cells stably expressing PSMB5-FLAG. […] Also refer to Supplementary Figure S1. (D) HEK-293T cells were treated in the absence (DMSO) or presence of 0.5 μM of TIR-199 for 6 h. Cell lysates were subjected to immunoblotting with the indicated antibodies. […] (E) HEK-293T cells were treated in the absence (DMSO) or presence of either 0.1 μM of bortezomib (BTZ) or 0.2 μM of TIR-199 for 4 h. Cell lysates were subjected to immunoblotting with the indicated antibodies.

[3] = tested on: endogenous proteasome in MM.1S cells; experiment: Chymotryptic-like proteasome activity in lysates of treated MM.1S cells; assay type: cell-based, human; settings: 0.5 μM TIR-199 for 0.5 h vs DMSO, Suc-LLVY-AMC, n=3
[4] = tested on: proteasome in primary CD138+ myeloma cells; experiment: Chymotryptic-like proteasome activity in primary CD138+ myeloma cells of patients; assay type: cell-based, human; settings: CD138+ cells of two refractory patients; 500 nM for 0.5 h; Suc-LLVY-AMC; n=3
Excerpt: CD138^+ myeloma cells were purified from the bone marrow aspirates which were obtained from HIPAA compliant de-identified consenting patients in accordance with Institutional Review Board protocol: 181027 approved on 9 October 2019 at UCSD. The bone marrow aspirates were kindly provided by Dr. Caitlin Costello, Moores Cancer Center, UCSD. CD138^+ primary myeloma cells were purified from fresh bone marrow aspirates of multiple myeloma patients using EasySep™ Human Whole Blood and Bone Marrow CD138 Positive Selection Kit II (StemCell Technologies) following manufacturer’s instructions. Viable cells were collected for further analyses.
Figure 1 TIR-199 is a syrbactin-based constitutive proteasome inhibitor (A) Chemical structure of syrbactin derivative TIR-199. (B) Wildtype (WT) PSMB5-FLAG was immunoprecipitated from HEK293 cells stably expressing PSMB5-FLAG. […] (C) Proteasome activity in lysates from MM.1S and primary CD138^+ myeloma cells purified from two patients treated with DMSO or 0.5 μM TIR-199 for 0.5 h was measured with Suc-LLVY-AMC. *P<0.05; **P<0.01; ***P<0.001 (compared with control treated, two-tailed paired Student’s t test, mean ± SD from n=3 replicates). Also refer to Supplementary Figure S1. (D) HEK-293T cells were treated in the absence (DMSO) or presence of 0.5 μM of TIR-199 for 6 h. Cell lysates were subjected to immunoblotting with the indicated antibodies. […]

[5] = tested on: HEK293T cells; experiment: Immunoblot of proteasome substrates and ubiquitylated proteins in HEK293T cells; assay type: cell-based, human
Description: Data were normalized to corresponding GAPDH levels. […] (D) HEK-293T cells were treated in the absence (DMSO) or presence of 0.5 μM of TIR-199 for 6 h. Cell lysates were subjected to immunoblotting with the indicated antibodies. Similar results were obtained in three independent replicates. (E) HEK-293T cells were treated in the absence (DMSO) or presence of either 0.1 μM of bortezomib (BTZ) or 0.2 μM of TIR-199 for 4 h. Cell lysates were subjected to immunoblotting with the indicated antibodies. Similar results were obtained in two independent replicates.

[6] = tested on: panel of 50 protein kinases; experiment: Kinase specificity profiling, panel of 50 protein kinases (33P-ATP); assay type: biochemical; settings: 1 μM TIR-199 (20-fold PSMB5 IC50); triplicate reactions
Description: TIR-199 specificity profiling assays were carried out at The International Centre for Protein Kinase Profiling (http://www.kinase-screen.mrc.ac.uk/). TIR-199 kinase specificity was determined against a panel of 50 protein kinases as described previously. The assay mixes and ^33P-γATP were added by Multidrop 384 (Thermo). Results are presented as a percentage of kinase activity in DMSO control reactions. Protein kinases were assayed in vitro with 1 μM final concentration of TIR-199 and the results are presented as an average of triplicate reactions ± SD or in the form of comparative histograms.
Kinase profiling of TIR-199 at 1 μM was carried out against the panel of 50 kinases at the
International Centre for Protein Kinase Profiling (http://www.kinase-screen.mrc.ac.uk/).
(1 picture or pasted object on this page, not shown here)

[7] = tested on: A549 cells; experiment: Cytotoxicity assay (MTS), A549; assay type: cell-based; settings: 48 h
Description: MTS absorbance was measured in a Tecan plate reader.

[8] = tested on: MM.1S myeloma-mediated bone degeneration in NSG mice; experiment: MM.1S/NSG systemic myeloma xenograft, μCT of femurs; assay type: in vivo, mouse; settings: 5 mg/kg i.p. daily for 4 days
[9] = target: PSMB8-FLAG (immunoproteasome) (Homo sapiens, UniProt P20618+P28062); experiment: Immunoproteasome activity assay on immunoprecipitated PSMB8-FLAG (Ac-ANW-AMC); settings: 100 nM for 30 min; Ac-ANW-AMC; n=3
Description: (§1) Immunoproteasome activity assays were carried out as stated previously [32]. Briefly, HEK293 cells transiently overexpressing FLAG-tagged PSMB9 or PSMB8 were treated with IFNγ (100 ng/ml; 48 h) to induce expression of immunoproteasome. […] Immunoproteasomes were affinity purified using FLAG agarose from 2 mg of cell lysate. Peptidase activities of purified immunoproteasomes were assayed using 100 μM fluorogenic peptide substrates Ac-ANW-AMC for PSMB8 and Ac-PAL-AMC for PSMB9 (Boston Biochem) for 30 min.
(§2) (B) PSMB8 or PSMB9 was immunoprecipitated for 48 h in 100 ng/ml IFNγ-stimulated HEK293 cells transiently overexpressing either PSMB8-FLAG or PSMB9-FLAG. […] Fluorescence signal upon release of AMC was measured in a Tecan plate reader. […] Results are means ± S.D. for n=3 replicates.

[10] = target: PSMB8-FLAG (immunoproteasome) (Homo sapiens, UniProt P28062); experiment: as above
Description: as §1, §2

[11] = tested on: PSMB5 (AA/TV) bortezomib-resistant mutant; settings: Suc-LLVY-AMC, relative to DMSO, n=3
[12] = vs vehicle, distal and proximal femur combined, n=6 femurs

| Structure (SMILES) | PSMB9 activity at single concentration [1] | pIC50 [2] | proteasomal activity of WT PSMB5 ([2]; 100 nM TIR-199) | chymotryptic-like endogenous proteasome activity in cell lysates [3] | chymotryptic-like proteasome activity compared with DMSO [4] | accumulation of ubiquitylated proteins (immunoblot) ([5]; 200 nM TIR-199 for 4 h) | proteasome substrates p62, IKBα and p21 protein levels (immunoblot) ([5]; 250 nM TIR-199 for 6 h (legend: 0.5 μM)) | inhibition of 50 kinases in vitro [6] | caspase-like activity of PSMB9 ([1]; up to 250 nM TIR-199, 100 μM Ac-PAL-AMC) | sensitivity to TIR-199 within lung cancer panel [7] | myeloma-mediated bone degeneration ([8]; femurs 7 days after dosing) | % bone volume over total volume (% BV/TV), femur μCT [8, 12] | trabecular number (Tb.N), femur μCT [8, 12] | trabecular separation (Tb.Sp), femur μCT [8, 12] | PSMB8 activity at single concentration [9] | pIC50 [10] | proteasomal activity of AA/TV PSMB5 ([11]; 100 nM TIR-199) | proteasomal activity of WT PSMB5 ([2]; 10 nM bortezomib) | accumulation of ubiquitylated proteins (immunoblot) ([5]; 100 nM bortezomib for 4 h) | proteasomal activity of AA/TV PSMB5 ([11]; 10 nM bortezomib) |
| --- | --- | --- | --- | --- | --- | --- | --- | --- | --- | --- | --- | --- | --- | --- | --- | --- | --- | --- | --- | --- |
| COc1ccc(C[C@H](NC(=O)[C@H](C)NC(=O)CN2CCOCC2)C(=O)N[C@@H](Cc2ccccc2)C(=O)C2(C)CO2)cc1 (stereo in doubt) [ONX-0914, reference compound] | did not inhibit | – | – | – | – | – | – | – | – | – | – | – | – | – | – | – | – | – | – | – |
| CCCCCCCCCCCCNC(=O)N[C@H](C(=O)N[C@H]1/C=C/CCNC(=O)/C=C/[C@H](C)NC1=O)C(C)C [TIR-199] | did not inhibit | 7.30 | equally sensitive | inhibition of chymotryptic-like endogenous proteasome activity | decreased significantly | accumulation of ubiquitylated proteins | protein levels increased | does not inhibit | largely more resistant | relatively more resistant | slowed down the myeloma-mediated bone degeneration process | not significant | higher trabecular number | significantly lower trabecular separation | inhibited PSMB8 potently | ~7.00 | equally sensitive | – | – | – |
| CC(C)C[C@H](NC(=O)[C@H](Cc1ccccc1)NC(=O)c1cnccn1)B(O)O [bortezomib, reference compound] | – | – | – | – | – | – | – | – | – | – | – | – | – | – | – | – | – | dramatic reduction in proteasomal activity | accumulation of ubiquitylated proteins | significant resistance |

From paper PMC8837819, “Syrbactin-class dual constitutive- and immuno-proteasome inhibitor TIR-199 impedes myeloma-mediated bone degeneration in vivo” (Bioscience Reports, 2022)
